From patent publication US20230293711A1, “DISRUPTION OF CD28-SIALOSIDE LIGAND COMPLEXES TO ENHANCE T CELL ACTIVATION” (THE SCRIPPS RESEARCH INSTITUTE, priority 2020, published 2023) come the findings set out here.

Bounds are passed on as bounds.

As usually defined, the Kd is the equilibrium constant for the complex coming apart. Higher therefore signals a looser complex. As usually defined, the EC50 is the concentration at which the effect is half-maximal. A lower EC50 goes with an effect from little substance.

For series [1], the system named is OT-II cells. The series can be described thus: APC-free expansion of OT-II cells with anti-CD3 and recombinant CD80 in the presence of soluble glycan. The series is classed as cell-based. The conditions noted are these: soluble glycan 500 μM; anti-CD3 and recombinant CD80-Fc. The procedure: FIG. 7. APC-free expansion of OT-II cells in the presence of soluble glycan (500 μM). (A) Experimental setup. T cells were activated using anti-CD3 (αCD3) and recombinant CD80 (rCD80). (B) OT-II cell proliferation histograms. (C) Quantification of data from (B).
Since recombinant CD80 binding to CD28 was the sole source of co-stimulation for T cells in this experiment, we conclude that sialic acid ligands of CD28 functionally suppress CD28 mediated co-stimulation.

For series [2], the target named is T1, mouse PD-1 (mPD1) (Mus musculus, UniProt Q02242).
T1 sequence (Q02242 25-288): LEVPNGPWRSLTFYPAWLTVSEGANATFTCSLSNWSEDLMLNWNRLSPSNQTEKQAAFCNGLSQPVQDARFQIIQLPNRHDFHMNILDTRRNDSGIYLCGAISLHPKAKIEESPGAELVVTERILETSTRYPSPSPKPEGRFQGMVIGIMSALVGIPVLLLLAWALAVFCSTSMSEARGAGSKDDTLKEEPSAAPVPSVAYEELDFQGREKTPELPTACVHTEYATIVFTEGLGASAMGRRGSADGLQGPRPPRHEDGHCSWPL
In words: Binding of expressed anti-PD-1 monoclonal antibodies and conjugate to mouse PD-1 (ELISA). The conditions noted are these: anti-hPD1 clones. An excerpt:
FIG. 11. Three expressed anti PD-1 monoclonal antibodies targeted respectively to either human PD-1 (hPD1) and mouse PD-1 (mPD1) bind with high specificity and affinity.
(§1) We investigated the possibility of using non-specific small-molecule linkers to install multiple reactive sites on three expressed αPD1 monoclonal antibodies. […] Through an inverse Electron Demand Diels Alder (iEDDA) reaction, two molecules conjugated respectively with tetrazine and TCO moieties can react rapidly and covalently under ambient conditions. Utilizing the methodology and reagents shown in the reaction scheme in FIG. 12A, we incubated αPD1 antibody clones with NHS-tetrazine 1, allowing non-selective labeling of solvent-exposed lysine residue side-chains (FIG. 12A). Simultaneously, we modified an expressed sialidase from Salmonella typhimurium (ST) containing a C-terminal cysteine though incubation with a 40-fold molar excess of TCO-maleimide 2, leading to near-complete selective modification of the free thiol group (FIG. 12A). To optimize conjugation yield, leading to maximum utilization of antibody starting material while also producing defined products with small numbers of ST per antibody, we titrated the molar ratio of NHS-tetrazine used to load the antibody with reactive groups in step one of the conjugation reaction (FIG. 12B). […]

A short description of series [3]: Sialidase activity of purified αPD1-S against MUNANA. The settings on record: 1 activity unit=1 μmol min-1; purified single- and double-modified αPD1-S. The series is classed as biochemical. The protocol: as §1
In series [4] the test system is DCs (expressing CD80). In words: Binding of recombinant CD28-Fc to sialidase-treated DCs (flow cytometry). The series is classed as cell-based, mouse. A general note: A flow cytometer gives signals particle by particle.
Series [5] has as its system T cells (CD4^+ and CD8^+) from murine spleen (expressing CD28). In words: Binding of recombinant CD80-Fc to sialidase-treated T cells (flow cytometry). The series is classed as cell-based.
The test system of series [6] is OT-II cells. In words: Adoptive transfer of ex vivo desialylated CTV-stained OT-II cells into OVA experienced host mice. The series is classed as in vivo. The conditions noted are these: cells treated ex vivo 45 min at 37° C.; OVA sensitized mice; vs normally sialylated control. The procedure: FIG. 8. Desialylated T cells are more readily activated in vivo. (A) WT mice were injected with OVA on day 1. On day 2, OT-II cells were treated with sialidase or PBS ex vivo for 45 min. at 37° C. and subsequently stained with CTV. These cells were then adoptively transferred into OVA experienced host mice (or naïve mice as a control). On day 5, spleens from host mice were analyzed for adoptively transferred OT-II cells and CTV dilution was evaluated. […] (C) Quantification of data from (B). […] Normalized division index corresponds to T cell division index for sialidase-treated cultures divided by the division index for the corresponding PBS treated control.
To investigate the translatability of these findings to an in vivo system, we adoptively transferred CTV-stained OT-II cells that were desialylated ex vivo into a WT host mouse. We observed that desialylated OT-II cells expanded more efficiently in vivo as compared to a normally sialylated control (FIG. 8).

The test system of series [7] is exhausted P14 cells. The series is classed as cell-based, mouse.
Series [8] deals with Polyclonal CD8^+ T cells exhausted via chronic LCMV infection. The series is classed as cell-based, mice.
Series [9] deals with OT-I cells (CD8^+ T cells). The series can be described thus: OT-I proliferation (CTV dilution) in co-culture with OVA-loaded DCs with or without sialidase.
In series [10] the test system is OT-II cells (CD4^+ T cells). The series can be described thus: OT-II proliferation (CTV dilution) in co-culture with OVA-loaded DCs with or without sialidase.
Series [11] concerns the target human CD28 (Homo sapiens, UniProt P10747). In words: Steady state SPR of soluble glycan binding to surface immobilized CD28. An excerpt:
FIG. 5. Biophysical characterization of a CD28-sialoside interaction. Steady state SPR data for α2,3-Sialyl-triLacNAc and triLacNAc binding to surface immobilized human CD28.
As an orthogonal test for sialoside binding and to assess the affinity of a sialoside ligand, we tested the ability of surface-immobilized CD28 to bind to a soluble sialylated glycan using SPR.

Series [12] has as its target chimeric PD-1 fused to green fluorescent protein, expressed on Jurkat T cells. In words: cell-based or functional assay.
Series [13] deals with T2, CD80 on murine dendritic cells (mouse, UniProt Q00609 38-306).
T2 construct: whole, on cells; DCs (expressing CD80), untreated or treated with V. cholerae sialidase; also called B7-1
T2 sequence: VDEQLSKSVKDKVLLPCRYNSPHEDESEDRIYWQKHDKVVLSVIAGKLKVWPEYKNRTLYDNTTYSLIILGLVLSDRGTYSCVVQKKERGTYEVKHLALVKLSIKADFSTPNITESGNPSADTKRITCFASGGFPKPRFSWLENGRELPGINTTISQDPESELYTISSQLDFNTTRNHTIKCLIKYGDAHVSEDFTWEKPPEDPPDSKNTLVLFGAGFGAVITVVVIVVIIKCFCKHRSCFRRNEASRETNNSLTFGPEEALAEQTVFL
The series can be described thus: flow cytometry on DCs with or without sialidase.

For series [14], the target named is mouse PD-1 (mouse) (UniProt Q02242). In words: ELISA (FIG. 11). On the technique in general: ELISA stands for enzyme-linked immunosorbent assay.
Series [15] has as its target T3, human PD-1 (human, UniProt Q15116 25-167, limits assumed).
T3 construct: also called hPD1
In words: ELISA (FIG. 11).

[16] abbreviates: OVA-loaded bone marrow derived DCs, 3 days, vs PBS.
Where [17] appears, read: bulk OVA-loaded splenocytes, DCs differentiated using Flt3L.

T3 sequence (Q15116 25-167 limits assumed): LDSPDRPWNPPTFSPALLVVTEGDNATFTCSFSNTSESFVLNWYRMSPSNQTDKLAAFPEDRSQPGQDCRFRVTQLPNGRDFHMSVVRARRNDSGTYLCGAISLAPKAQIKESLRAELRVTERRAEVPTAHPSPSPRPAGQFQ
Chain of human CD28 (P10747 19-220): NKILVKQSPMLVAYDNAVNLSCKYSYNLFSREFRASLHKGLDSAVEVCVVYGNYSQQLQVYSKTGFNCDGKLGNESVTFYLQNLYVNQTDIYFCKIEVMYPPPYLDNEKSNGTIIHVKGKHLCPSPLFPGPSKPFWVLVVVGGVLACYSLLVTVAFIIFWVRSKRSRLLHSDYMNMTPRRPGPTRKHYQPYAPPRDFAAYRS

Turning to “NeuAcα2-3Galβ1-4(Fucα1-3)GlcNAc [sialylated-Lewis X]”, the T cell proliferation result in [1] was “significant reduction”.

In the case of Pembrolizumab [409A11], the “affinity for mPD1” value in [2] is recorded as “no affinity”. Also, in [3], the “sialidase activity against MUNANA” value is given as 26 U mL-1.

For the molecule “sialidase: free sialidase; from V. cholerae in FIG. 2 and 6, source not stated for the other experiments”, the “binding of recombinant CD28-Fc to desialylated DCs compared to untreated controls” value in [4] is recorded as “significant enhancement”. Moreover, in series [5], the “binding of recombinant CD80-Fc to desialylated T cells compared to untreated controls” value is listed as “significant enhancement”. Also, the “proliferation of adoptively transferred OT-II cells in vivo” value in series [6] is reported as “enhanced proliferation”. Besides, in series [7], the “cytokine production (IFN-γ/TNF-α)” value was “enhanced”. In addition, in series [8], the “T cell activation (percentage of cells expressing IFN-γ and granzyme B) over peptide alone” value is recorded as “enhanced”; the “expression of LAMP-1 over peptide alone” value is given as “enhanced”. Moreover, the “enhancement of CD8^+ T cell proliferation” value in series [9] (setting [16]) is reported as 2-3 fold. In addition, the “OT-I cell activation with alternative APC sources” value in [9] (setting [17]) is listed as “enhancement”. The “enhancement of CD4^+ T cell proliferation” value in series [10] (setting [16]) was 2-3 fold. In addition, the “OT-II cell activation with alternative APC sources” value in series [10] (setting [17]) is “enhancement”.

The molecule “α2,3-Sialyl-triLacNAc [soluble sialylated glycan]” gave a Kd in [11] of 112 µM.

For “αhPD1-S (409A11), conjugate of anti-human PD-1 clone 409A11 and Salmonella typhimurium sialidase (from UniProt P29768 2-382)”, in series [12], the desialylation of Jurkat-PD1-GFP against Jurkat T cells (lectin staining SNA, PNA, MAA-II, flow cytometry) was above 100 fold and the fold decrease in level of αPD1-S needed for similar desialylation of Jurkat-PD1-GFP against native Jurkat cells was 100 to 1000 fold.

B1: recombinant chimeric mouse CD28 fused to human Fc (Fc fusion, UniProt P31041 20-150, looked up)
chain: NKILVKQSPLLVVDSNEVSLSCRYSYNLLAKEFRASLYKGVNSDVEVCVGNGNFTYQPQFRSNAEFNCDGDFDNETVTFRLWNLHVNHTDIYFCKIEFMYPPPYLDNERSNGTIIHIKEKHLCHTQSSPKL
notes: Commercial Fc chimera; also called CD28-Fc; not shown: human Fc
B1: in series [13], the binding result is “binds”.

B2: anti-mouse PD-1 monoclonal antibody clone J43 (antibody, from another filing, V domains shown)
VH: EVRLLESGGGLVKPEGSLKLSCVASGFTFSDYFMSWVRQAPGKGLEWVAHIYTKSYNYATYYSGSVKGRFTISRDDSRSMVYLQMNNLRTEDTATYYCTRDGSGYPSLDFWGQGTQVTVSS
VL: YELTQPPSASVNVGETVKITCSGDQLPKYFADWFHQRSDQTILQVIYDDNKRPSGIPERISGSSSGTTATLTIRDVRAEDEGDYYCFSGYVDSDSKLYVFGSGTQLTVLG
Molecule B2 returned an EC50 in series [14] of 0.39 µg/mL.

B3: anti-human PD-1 monoclonal antibody clone 1H3 (antibody, V domains shown)
VH: EVQLVESGGGLVKPGGSLKLSCAASGFTFSDYGMHWVRQAPEKGLEWVAYISSGSYTIYYTDTVKGRFTISRDNAKNTLFLQMTSLRSEDTAMYYCARRGYGSFYEYYFDYWGQGTTLTVSS
VL: QIVLTQSPALMSASPGEKVTMTCSASSSVSYMYWYQQKPRSSPKPWIYLTSNLASGVPARFSGSGSGTSYSLTISSMEAEDAATYYCQQWSSNPFTFGSGTKLEIK
In series [15], B3 yielded an EC50 of 0.16 µg/mL.
